# Laboratory results from patent US9248200B2, “Method of delivering an anti-cancer agent to a cell” (Agency for Science, Technology and Research, priority 2007, dated 2016).
# How the values were obtained:
# [1] = system: human normal mammary epithelial cells (HMEC); experiment: Cytotoxicity test (Alamar Blue cell viability); type: cell-based; details: treated 2 days, different concentrations, FIG. 1
# Procedure: Cells were plated (1×10^4 cells in mammary epithelial growth medium/well) in quintuplicate and octuplicate for samples and control, respectively, in 96-well microplates, and allowed to adhere overnight.
# [2] = system: SKBR-3 (HER2-overexpressing human breast cancer cell line); experiment: Cancer cell proliferation assessment (Alamar Blue); type: cell-based; details: SKBR-3 cells; Herceptin 0.5 mg/ml; FIG. 4
# Procedure: Cancer Cell Proliferation Assessment: SKBR-3 cells (ATCC, HTB3O, USA) were plated (1×10^4 cells in McCoy's 5 A medium/well) in quintuplicate and octuplicate for samples and control, respectively, in 96-well microplates and allowed to adhere overnight. […] At the time points indicated, the culture media were replaced by the phenol red-free media containing 10% of Alamar Blue. Cell proliferation was determined from the reduction in dye absorbance at 570 and 600 nm after 4 h of incubation.
# proteinase K = proteinase K (Parengyodontium album, UniProt P06873); experiment: Proteolysis assessment (FITC-BSA fluorescence with proteinase K); details: proteinase K 0.05 mg/ml, over time; FIG. 3
# Procedure: Proteolysis Assessment: Protein degradation was determined by monitoring the fluorescence intensity increment in FITC-BSA when samples were subjected to proteinase K (0.05 mg/mI), using a fluorescence spectrophotometer (Hitachi, Japan, λex=490 nm and λem=530 nm). All measurements were run in triplicate.
# Sequence of proteinase K (P06873 106-384): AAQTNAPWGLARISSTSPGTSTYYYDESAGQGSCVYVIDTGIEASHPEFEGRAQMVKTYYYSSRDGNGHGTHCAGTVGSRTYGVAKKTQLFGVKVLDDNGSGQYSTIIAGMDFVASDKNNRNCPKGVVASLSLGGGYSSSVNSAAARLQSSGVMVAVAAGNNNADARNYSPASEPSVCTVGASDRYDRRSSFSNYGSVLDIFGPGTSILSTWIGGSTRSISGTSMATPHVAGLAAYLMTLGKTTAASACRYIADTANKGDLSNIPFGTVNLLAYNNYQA
substance,measurement,setting,value
(−)-epigallocatechin gallate [EGCG],cytotoxicity,[1],low cytotoxicity
oligomeric (−)-epigallocatechin-3-O-gallate [OEGCG],inhibition of cell growth,[2],inhibited
free FITC-BSA: fluorescence-labeled protein (FITC-BSA),fluorescence intensity of FITC-BSA (protein degradation),proteinase K,greatly increased with time
